Laboratory results reported in ChEMBL document CHEMBL3414500, “New polycyclic dual inhibitors of the wild type and the V27A mutant M2 channel of the influenza A virus with unexpected binding mode” (Eur J Med Chem, 2015).
Calls of active or inactive are those of the source. The calls are words filed in the database; no cut-off is given here.

Experiments:
Influenza A virus [1] = experiment: Antiviral activity against Influenza A virus (A/PR/8/34(H1N1)) infected in MDCK cells assessed as cell viability after 72 hrs by MTS assay; assay type: functional, organism-based; conditions: A/Puerto Rico/8/1934(H1N1)
Influenza A virus [2] = experiment: Antiviral activity against Influenza A virus (A/PR/8/34(H1N1)) infected in MDCK cells assessed as reduction of virus-induced cytopathic effect after 72 hrs by microscopic analysis; assay type: functional, organism-based; conditions: A/Puerto Rico/8/1934(H1N1)
[3] = Antiviral activity against Influenza A virus (A/HK/7/87(H3N2)) infected in MDCK cells assessed as reduction of virus-induced cytopathic effect after 72 hrs by microscopic analysis; assay type: functional, cell-based, Influenza A virus (A/Hong Kong/7/1987(H3N2))
[4] = Antiviral activity against Influenza A virus (A/HK/7/87(H3N2)) infected in MDCK cells assessed as cell viability after 72 hrs by MTS assay; assay type: functional, cell-based, Influenza A virus (A/Hong Kong/7/1987(H3N2))
[5] = Antiviral activity against Influenza A virus (A/HK/7/87(H3N2)) infected in MDCK cells assessed as virus plaque reduction preincubated for 1 hr followed by compound wash out and incubated for 72 hrs by crystal violet staining; assay type: functional, cell-based, Influenza A virus (A/Hong Kong/7/1987(H3N2))
[6] = Cytotoxicity against MDCK cells assessed as alternations in cell morphology after 72 hrs; assay type: cell-based, Canis lupus familiaris; conditions: dog
Matrix protein 2 = Matrix protein 2 (Influenza A virus, UniProt P06821); assay type: cell membranes, Influenza A virus (A/udorn/1972(H3N2))
[7] = Antiviral activity against Influenza A virus (A/HK/7/87(H3N2)) infected in MDCK cells assessed as 2-log10 reduction in virus yield after 24 hrs by RT-qPCR analysis; assay type: functional, Influenza A virus (A/Hong Kong/7/1987(H3N2))
Influenza B virus = experiment: Antiviral activity against Influenza B virus (B/HK/5/72) infected in MDCK cells assessed as reduction of virus-induced cytopathic effect after 72 hrs by microscopic analysis; assay type: functional, cell-based; conditions: B/Hong Kong/05/1972
[8] = molecular target: Matrix protein 2 (Influenza A virus) (UniProt P06821); assay type: cell membranes; conditions: Influenza A virus (A/udorn/1972(H3N2)); 100 uM
[9] = Cytotoxicity against MDCK cells assessed as cell viability after 72 hrs by MTS assay; assay type: cell-based, Canis lupus familiaris; conditions: dog

Chain of Matrix protein 2 (Influenza A virus) (P06821 whole entry): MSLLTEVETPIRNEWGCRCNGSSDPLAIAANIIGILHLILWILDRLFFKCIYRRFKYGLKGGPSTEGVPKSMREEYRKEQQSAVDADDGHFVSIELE
Chain of Matrix protein 2 (P06821 whole entry): as above

SMILES	EC50 (Influenza A virus [1])	EC50 (Influenza A virus [2])	EC50 [3]	EC50 [4]	EC50 [5]	MCC at 72 h [6]	IC50 (Matrix protein 2)	EC99 [7]	Activity (Influenza B virus)	inhibition [8]	CC50 at 72 h [9]
N=C(N)N1C[C@@H]2[C@H](C1)[C@H]1C3CC4[C@H]([C@H]41)[C@@H]32	> 100 µM	> 100 µM	> 100 µM	> 100 µM	> 100 µM	> 100 µM	0.8 µM	> 50 µM	inactive	99%	50 µM
N=C(N)N1C[C@@H]2[C@H](C1)[C@@H]1[C@@H]3[C@H]4CC[C@H]5[C@@H]3[C@H]2[C@H]2[C@@H]5[C@@H]4[C@@H]12	> 100 µM	> 100 µM	> 100 µM	> 100 µM	> 5 µM	7 µM	3.7 µM	> 2 µM	inactive	90.6%	4.6 µM
C1C[C@H]2[C@H]3[C@H]4[C@@H]1[C@@H]1[C@H]2[C@@H]2[C@H]3[C@@H]3CNC[C@@H]3[C@H]4[C@H]12	> 100 µM	> 100 µM	> 100 µM	> 100 µM	0.54 µM	4 µM	2.1 µM	> 2 µM	inactive	98.1%	3.7 µM
CC(N)C12CC3CC(CC(C3)C1)C2 (stereo not given) [RIMANTADINE]	5.1 µM	7.6 µM	0.81 µM	0.15 µM	0.02 µM			1.77 µM			
Brc1ccc(CNC23CC4CC(CC(C4)C2)C3)s1										77%	
N=C(N)N1C[C@@H]2[C@H](C1)[C@@H]1[C@@H]3[C@H]4C=C[C@H]5[C@@H]3[C@H]2[C@H]2[C@@H]5[C@@H]4[C@@H]12	> 100 µM	> 100 µM	> 100 µM	> 100 µM	> 5 µM	2 µM	6.5 µM	> 2 µM	inactive	89.6%	1.2 µM
NC12CC3CC(CC(C3)C1)C2 [AMANTADINE]	34 µM	30 µM	1.4 µM	1.4 µM	0.14 µM			0.72 µM			
C1C2[C@@H]3[C@H]2[C@@H]2C1[C@H]3[C@@H]1CNC[C@@H]12	> 100 µM	> 100 µM	> 100 µM	> 100 µM	6.7 µM	> 100 µM	3.3 µM	28 µM	inactive	93.7%	> 100 µM
N=C(N)N1CC2C3CCC(C4CCC43)C2C1 (stereo not given)										94.5%	
C1=C[C@H]2[C@H]3[C@H]4[C@@H]1[C@@H]1[C@H]2[C@@H]2[C@H]3[C@@H]3CNC[C@@H]3[C@H]4[C@H]12	> 100 µM	> 100 µM	> 100 µM	> 100 µM	0.37 µM	20 µM	2.6 µM	3.45 µM	inactive	96.4%	11 µM
